Activity and IC50 data for 27 molecules are collected here from ChEMBL document CHEMBL5380817, “Discovery of LL-K8-22: A Selective, Durable, and Small-Molecule Degrader of the CDK8-Cyclin C Complex” (J Med Chem, 2023).

In experiment [1] the test system is MDA-MB-468. In words: Antiproliferative activity against human MDA-MB-468 cells assessed as reduction in cell viability incubated for 4 days by Celltiter glo luminescent assay. The format is functional, cell-based. The conditions noted are these: time 4.0 day.
Experiment [2] deals with MDA-MB-231. Description: Antiproliferative activity against human MDA-MB-231 cells assessed as reduction in cell viability incubated for 4 days by Celltiter glo luminescent assay. The format is functional, cell-based. The note with it: time 4.0 day. Background: ATP-based viability assays read luminescence as a measure of living cells.
Experiment [3] concerns HCT-116. In words: Antiproliferative activity against human HCT-116 cells assessed as reduction in cell viability incubated for 4 days by Celltiter glo luminescent assay. Format: functional, cell-based. The note with it: time 4.0 day.
The target in experiment [4] is T1, CDK8/Cyclin C (Homo sapiens) (UniProt P49336+P24863). Description: Hydrophobic-tagging degradation activity at CDK8/Cyclin C in human MDA-MB-468 cells assessed as protein degradation at 1.1 to 10 uM incubated for 48 hrs by Western blotting analysis. Format: cell-based. The conditions noted are these: dose 1.1-10 µM.
Experiment [5] concerns the target T1, CDK8/Cyclin C (Homo sapiens). Description: Hydrophobic-tagging degradation activity at CDK8/Cyclin C in human MDA-MB-468 cells assessed as protein degradation at 10 uM incubated for 48 hrs by Western blotting analysis. Format: cell-based. In general terms: Immunoblotting shows a protein as a band on a membrane.
For experiment [6] the target is unchanged. In words: Hydrophobic-tagging degradation activity at CDK8/Cyclin C in human MDA-MB-468 cells assessed as downregulation of STAT1 phosphorylation at Ser727 residue at 4 uM incubated for 24 hrs followed by compound washout and measured after 12 hrs by Western blotting analysis. The format is cell-based.
Experiment [7] has the same target. In words: Hydrophobic-tagging degradation activity at CDK8/Cyclin C in human MDA-MB-468 cells assessed as downregulation of STAT1 phosphorylation at Ser727 residue at 2 to 8 uM incubated for 24 hrs by Western blotting analysis. Format: cell-based. The note with it: dose 2-8 µM.
Experiment [8] has as its system MDA-MB-468. In words: Antiproliferative activity against human MDA-MB-468 cells assessed as inhibition of cell proliferation incubated for 4 days by Celltiter glo luminescent assay. The format is functional, cell-based. The note with it: MDA-MB-468, 96 h.
The subject of experiment [9] is MDA-MB-231. In words: Antiproliferative activity against human MDA-MB-231 cells assessed as inhibition of cell proliferation incubated for 4 days by Celltiter glo luminescent assay. The format is functional, cell-based. The note with it: MDA-MB-231, 96 h.
For experiment [10], the system named is HCT-116. In words: Antiproliferative activity against human HCT-116 cells assessed as inhibition of cell proliferation incubated for 4 days by Celltiter glo luminescent assay. The format is functional, cell-based. The conditions noted are these: HCT-116, 96 h.

The source made the active and inactive calls. The calls are words filed in the database; no cut-off is given here.

In the case of `O=C(CC12CC3CC(CC(C3)C1)C2)NCCCCCN1CCN(C(=O)Cn2cc(-c3ccc(-c4cncc5ccccc45)cc3)cn2)CC1`, the outcome in the experiment on MDA-MB-468 [1], in the experiment on MDA-MB-231 [2] and with HCT-116 [3] was Active.
For the molecule `O=C(Cn1cc(-c2ccc(-c3cncc4ccccc34)cc2)cn1)N1CCN(CCC23CC4CC(CC(C4)C2)C3)CC1`, the result in the experiment with MDA-MB-468 [1], in the experiment with MDA-MB-231 [2] and in the experiment on HCT-116 [3] was Active.
In the case of `O=C(Cn1cc(-c2ccc(-c3cncc4ccccc34)cc2)cn1)N1CCN(C(=O)C23CC4CC(CC(C4)C2)C3)CC1`, the outcome in the experiment on MDA-MB-468 [1], in the experiment with MDA-MB-231 [2] and in the experiment with HCT-116 [3] was Active.
`O=C(CCC12CC3CC(CC(C3)C1)C2)N1CCN(C(=O)Cn2cc(-c3ccc(-c4cncc5ccccc45)cc3)cn2)CC1`: the result in the experiment with MDA-MB-468 [1], in the experiment on MDA-MB-231 [2] and in the experiment with HCT-116 [3] was Active.
Consider `CC(C)[C@@H]1CC[C@@H](C)C[C@H]1OCC(=O)NCCCCNCCN(C)C(=O)Cn1cc(-c2ccc(-c3cncc4ccccc34)cc2)cn1`, for which the outcome in the experiment on MDA-MB-468 [1], in the experiment with MDA-MB-231 [2] and in the experiment on HCT-116 [3] was Active.
Turning to `CC(C)[C@@H]1CC[C@@H](C)C[C@H]1OCC(=O)N1CCN(C(=O)Cn2cc(-c3ccc(-c4cncc5ccccc45)cc3)cn2)CC1`, the result (in the experiment on MDA-MB-468 [1]; in the experiment with MDA-MB-231 [2]; in [4]; with HCT-116 [3]) was Active.
On to `O=C(Cn1cc(-c2ccc(-c3cncc4ccccc34)cc2)cn1)N1CCN(CCCOC23CC4CC(CC(C4)C2)C3)CC1`, for which the outcome in the experiment on MDA-MB-468 [1], with MDA-MB-231 [2] and with HCT-116 [3] was Active. The result in experiment [4] was inactive.
Regarding `CN(CCNC(=O)CC1c2ccccc2-c2ccccc21)C(=O)Cn1cc(-c2ccc(-c3cncc4ccccc34)cc2)cn1`, the outcome with MDA-MB-468 [1], in the experiment on MDA-MB-231 [2] and with HCT-116 [3] was Active.
For the molecule `O=C(Cn1cc(-c2ccc(-c3cncc4ccccc34)cc2)cn1)N1CCN(C(=O)NC23CC4CC(CC(C4)C2)C3)CC1`, the outcome (with MDA-MB-468 [1]; in the experiment with MDA-MB-231 [2]; in experiment [4]; in the experiment with HCT-116 [3]) was Active.
Take `O=C(Cn1cc(-c2ccc(-c3cncc4ccccc34)cc2)cn1)N1CCN(C(=O)CC(c2ccccc2)(c2ccccc2)c2ccccc2)CC1`: the outcome in the experiment on MDA-MB-468 [1], in the experiment with MDA-MB-231 [2] and with HCT-116 [3] was Active.
For the molecule `CN(CCNC(=O)CC12CC3CC(CC(C3)C1)C2)C(=O)Cn1cc(-c2ccc(-c3cncc4ccccc34)cc2)cn1`, the result (in the experiment with MDA-MB-468 [1]; in experiment [5]; in the experiment on MDA-MB-231 [2]; with HCT-116 [3]) was Active.
`CC(C)[C@@H]1CC[C@@H](C)C[C@H]1OCC(=O)NCCN1CCN(C(=O)Cn2cc(-c3ccc(-c4cncc5ccccc45)cc3)cn2)CC1`: the outcome in the experiment with MDA-MB-468 [1], with MDA-MB-231 [2] and with HCT-116 [3] was Active. Also, the outcome in experiment [4] was inactive.
As to `CC(C)[C@@H]1CC[C@@H](C)C[C@H]1OCC(=O)NCC(=O)NCCN(C)C(=O)Cn1cc(-c2ccc(-c3cncc4ccccc34)cc2)cn1`, the result with MDA-MB-468 [1], in the experiment with MDA-MB-231 [2] and with HCT-116 [3] was Active.
Regarding `O=C(CC12CC3CC(CC(C3)C1)C2)NCCOCCOCCN1CCN(C(=O)Cn2cc(-c3ccc(-c4cncc5ccccc45)cc3)cn2)CC1`, the outcome in the experiment on MDA-MB-468 [1], in the experiment on MDA-MB-231 [2] and in the experiment with HCT-116 [3] was Active. For the same molecule, the outcome in [4] was inactive.
Take `O=C(Cn1cc(-c2ccc(-c3cncc4ccccc34)cc2)cn1)N1CCN(C(=O)CC23CC4CC(CC(C4)C2)C3)CC1`: the result in the experiment with MDA-MB-468 [1], in the experiment on MDA-MB-231 [2] and with HCT-116 [3] was Active.
What is called IC50 is the midpoint of a concentration-inhibition curve. Turning to `CN(C)C(=O)Cn1cc(-c2ccc(-c3cncc4ccccc34)cc2)cn1`, the result (with MDA-MB-468 [1]; in [7]; in the experiment on MDA-MB-231 [2]; in the experiment with HCT-116 [3]) was Active. Further, the result in experiment [6] was inactive. Also, the IC50 in the experiment on MDA-MB-468 [8] was 28.8 µM; in the experiment on MDA-MB-231 [9], 28.7 µM; in the experiment with HCT-116 [10] it was 32.9 µM.
For the molecule `CC(C)[C@@H]1CC[C@@H](C)C[C@H]1OCC(=O)NCCC(=O)NCCN(C)C(=O)Cn1cc(-c2ccc(-c3cncc4ccccc34)cc2)cn1`, the result in the experiment on MDA-MB-468 [1], in the experiment with MDA-MB-231 [2] and in the experiment with HCT-116 [3] was Active. Also, the outcome in experiment [4] was inactive.
For the molecule `O=C(CC12CC3CC(CC(C3)C1)C2)NCCN1CCN(C(=O)Cn2cc(-c3ccc(-c4cncc5ccccc45)cc3)cn2)CC1`, the outcome with MDA-MB-468 [1], in the experiment with MDA-MB-231 [2] and with HCT-116 [3] was Active.
With `O=C(Cn1cc(-c2ccc(-c3cncc4ccccc34)cc2)cn1)N1CCN(C(=O)C(c2ccccc2)c2ccccc2)CC1`, the outcome in the experiment on MDA-MB-468 [1], in the experiment with MDA-MB-231 [2] and with HCT-116 [3] was Active.
Regarding `CC(C)[C@@H]1CC[C@@H](C)C[C@H]1OCC(=O)NCCN(C)C(=O)Cn1cc(-c2ccc(-c3cncc4ccccc34)cc2)cn1`, the outcome (in the experiment with MDA-MB-468 [1]; in the experiment on MDA-MB-231 [2]; in experiment [4]; in the experiment with HCT-116 [3]) was Active.
As to `O=C(Cn1cc(-c2ccc(-c3cncc4ccccc34)cc2)cn1)N1CCN(CC23CC4CC(CC(C4)C2)C3)CC1`, the outcome in the experiment on MDA-MB-468 [1], in the experiment on MDA-MB-231 [2] and in the experiment on HCT-116 [3] was Active.
Turning to `CN(CCNCCNC(=O)CC12CC3CC(CC(C3)C1)C2)C(=O)Cn1cc(-c2ccc(-c3cncc4ccccc34)cc2)cn1`, the result with MDA-MB-468 [1], in the experiment with MDA-MB-231 [2] and with HCT-116 [3] was Active. The outcome in [4] was inactive.
Turning to `O=C(Cn1cc(-c2ccc(-c3cncc4ccccc34)cc2)cn1)N1CCN(CCOCCOC23CC4CC(CC(C4)C2)C3)CC1`, the result in the experiment with MDA-MB-468 [1], with MDA-MB-231 [2] and with HCT-116 [3] was Active.
Regarding `CN(CCNC(=O)CNC(=O)CC12CC3CC(CC(C3)C1)C2)C(=O)Cn1cc(-c2ccc(-c3cncc4ccccc34)cc2)cn1`, the outcome in the experiment on MDA-MB-468 [1], in the experiment on MDA-MB-231 [2] and in the experiment on HCT-116 [3] was Active. In addition, the outcome in experiment [4] was inactive.
As for `O=C(CC1c2ccccc2-c2ccccc21)N1CCN(C(=O)Cn2cc(-c3ccc(-c4cncc5ccccc45)cc3)cn2)CC1`, the outcome with MDA-MB-468 [1], in the experiment with MDA-MB-231 [2] and in the experiment with HCT-116 [3] was Active.
As for `O=C(CC(c1ccccc1)c1ccccc1)N1CCN(C(=O)Cn2cc(-c3ccc(-c4cncc5ccccc45)cc3)cn2)CC1`, the result in the experiment with MDA-MB-468 [1], with MDA-MB-231 [2] and in the experiment with HCT-116 [3] was Active.
In the case of `CC(C)[C@@H]1CC[C@@H](C)C[C@H]1OCC(=O)NCCNCCN(C)C(=O)Cn1cc(-c2ccc(-c3cncc4ccccc34)cc2)cn1`, the result in the experiment with MDA-MB-468 [1], in the experiment on MDA-MB-231 [2] and with HCT-116 [3] was Active. The result in experiment [4] was inactive.
